Two compounds from article PMC9184653, “LDL receptor-related protein 1 (LRP1), a novel target for opening the blood-labyrinth barrier (BLB)” (Signal Transduction and Targeted Therapy, 2022) can be followed below.

As usually defined, the Kd is the concentration at which binding is half-saturated.

Where no end group is shown, it is not given here.

In data set [1] the target is T1, LRP1 (Mus musculus, UniProt Q91ZX7).
T1 construct: from tissue; host or cells: cochleae of C57BL/6J mice
Briefly: immunofluorescence imaging of cochleae after intravenous injection (distribution, colocalization with LRP1). It counts as in vivo. The note with it: i.v. injection. The method, then:
(§1) To classify the roles of LRP1 in the transportation of IETP2 to the inner ear, the binding affinity of IETP2 to LRP1 was first determined using biolayer interferometry (BLI, Fig. 2d). […] SV was further imaged from another view. […] The Manders’ colocalization coefficients (MCCs) of LRP1 and IETP2 in IHCs, ECs, SP cells, and SGNs were 0.71515, 0.64284, 0.56482, and 0.70552, respectively.
Four-week-old C57BL/6J mice of either sex were harvested 50 min and 2 h post-injection. Cochleae were fixed in 4% paraformaldehyde at 4 °C for 8 h and decalcified in 4% EDTA for 4 days at room temperature (RT). Parts of the cochleae were dissected into pieces containing the basilar membrane (BM), organ of Corti (OC) and stria vascularis (SV) from the apex to the hook region and then used for whole-mount immunofluorescence. Other parts of the cochleae were dehydrated using a graded sucrose solution (15% and 30%; 3 h for each grade) at RT, embedded in optimum cutting temperature (OCT) compound for 5 h at RT, frozen for 1 h at −20 °C and sectioned with a freezing microtome (Leica CM1900) at an 8 μm thickness.
For whole-mount and cross-section immunofluorescence, tissues were incubated with 0.1% Triton X-100 and blocked with 10% donkey serum for 2 h at RT before the application of the primary antibodies. […]

The target in data set [2] is LRP1 (Homo sapiens, UniProt Q07954). The experiment in a line: biolayer interferometry (BLI) binding of IETP2 to LRP1. The note with it: kinetic analysis, read-out: dissociation constant (KD) of IETP2 binding to LRP1.
From the text: Gly-Cy5.5 served as a negative control. d Kinetic analysis of IETP2 binding to LRP1. […] Scale bars: e, j, o 100 µm, y, z 50 µm, others 10 µm.)
as §1
Background: BLI is a label-free optical method that tracks binding on a fibre tip over time.

In another data set the test system is mouse cochleae. Briefly: in vivo and ex vivo fluorescence imaging of cochlear uptake. The note with it: IETP2-Cy5.5, i.v., BALB/c nude mice. From the text:
To validate whether the selected IETPs could cross the BLB and to evaluate the inner ear-targeting efficacy, IETPs were covalently conjugated with the fluorescent dye Cy5.5 and intravenously injected into mice. In vivo and ex vivo fluorescence imaging of cochleae was used for evaluation. […] The IETP2 signal was visualized with in vivo fluorescence imaging (Fig. 2c). Compared to that in the brain and muscle, the signal of IETP2 detected in the cochleae was much stronger (Fig. 2c). […] Therefore, IETP2 was selected for the subsequent experiments.
BALB/c nude mice (4 weeks old, either sex) were divided into three groups (5 mice for each group). […] After the indicated times, the animals were anesthetized with isoflurane and subjected to live animal imaging (IVIS Lumina III, Caliper LifeSciences, MA, USA). The excitation/emission filter was set at 625/700 nm, and images were taken with an interval of 20 min post-injection. To validate the uptake efficiency of different IETPs, mice were sacrificed 1 h post-injection, and the cochleae were collected and imaged. […] The time-dependent uptake of IETP2 in mouse cochleae was assessed at a series of time points (1, 1.5, 2, and 2.5 h) with 3 mice at each time point for each group. Collected images were analyzed using Living Image software (IVIS Imaging System, 4.5.5).

The test system of another data set is C57BL/6J mice. The experiment in a line: ototoxicity evaluation by auditory brainstem response (ABR) testing. To be noted: 6 mice, 12 ears, 7- and 14-days post-administration. It counts as in vivo, mouse. The method, then:
Auditory brainstem response (ABR) testing was conducted in a standard soundproof chamber for animal use. Mice were anesthetized with a mixture of isoflurane (Keyue Life Science Co., Ltd.) and air via a respirator for animal use (Medical Supplies and Services Int., Ltd.) and an aquarium air pump (HAILEA, A00–5505). The final concentration of isoflurane was 2% at a flow rate of 1.5. Circulating heating pads were placed under the mice to maintain body temperature at 37 °C. ABRs were recorded with a Tucker Davis Technologies (TDT) RZ6 instrument, and the sound was delivered by a calibrated loudspeaker (TDT, MF1 2356).
For ABR testing, needle electrodes were inserted beneath the skin. The recording electrode was inserted at the vertex, the reference electrode was inserted at the pinna, and the ground electrode was inserted near the tail. The ABR stimuli were frequency-specific tone pips at frequencies from 1 kHz to 32 kHz with a duration of 5 ms (0.5 ms rise-fall delivered at 21.1/sec), and each response was amplified 10,000-fold with a filter passband of 100 Hz to 3 kHz and averaged over 1024 times. The signal started at 90 dB sound pressure level (SPL) with a step of 10 dB and decreased to 10 dB SPL at frequencies of 4, 8, 16, 24, and 32 kHz for mice. The threshold was defined as the lowest dB SPL with an identifiable and repeatable wave I for mice. […]

Another data set deals with pig cochleae. The experiment in a line: pig cochlear immunofluorescence imaging after intravenous injection. The data set is classed as in vivo. To be noted: IETP2 labeled with 5-TAMRA or Cy5.5, earlobe vein injection, 2 h post-injection.

T1 sequence (Q91ZX7 20-4545): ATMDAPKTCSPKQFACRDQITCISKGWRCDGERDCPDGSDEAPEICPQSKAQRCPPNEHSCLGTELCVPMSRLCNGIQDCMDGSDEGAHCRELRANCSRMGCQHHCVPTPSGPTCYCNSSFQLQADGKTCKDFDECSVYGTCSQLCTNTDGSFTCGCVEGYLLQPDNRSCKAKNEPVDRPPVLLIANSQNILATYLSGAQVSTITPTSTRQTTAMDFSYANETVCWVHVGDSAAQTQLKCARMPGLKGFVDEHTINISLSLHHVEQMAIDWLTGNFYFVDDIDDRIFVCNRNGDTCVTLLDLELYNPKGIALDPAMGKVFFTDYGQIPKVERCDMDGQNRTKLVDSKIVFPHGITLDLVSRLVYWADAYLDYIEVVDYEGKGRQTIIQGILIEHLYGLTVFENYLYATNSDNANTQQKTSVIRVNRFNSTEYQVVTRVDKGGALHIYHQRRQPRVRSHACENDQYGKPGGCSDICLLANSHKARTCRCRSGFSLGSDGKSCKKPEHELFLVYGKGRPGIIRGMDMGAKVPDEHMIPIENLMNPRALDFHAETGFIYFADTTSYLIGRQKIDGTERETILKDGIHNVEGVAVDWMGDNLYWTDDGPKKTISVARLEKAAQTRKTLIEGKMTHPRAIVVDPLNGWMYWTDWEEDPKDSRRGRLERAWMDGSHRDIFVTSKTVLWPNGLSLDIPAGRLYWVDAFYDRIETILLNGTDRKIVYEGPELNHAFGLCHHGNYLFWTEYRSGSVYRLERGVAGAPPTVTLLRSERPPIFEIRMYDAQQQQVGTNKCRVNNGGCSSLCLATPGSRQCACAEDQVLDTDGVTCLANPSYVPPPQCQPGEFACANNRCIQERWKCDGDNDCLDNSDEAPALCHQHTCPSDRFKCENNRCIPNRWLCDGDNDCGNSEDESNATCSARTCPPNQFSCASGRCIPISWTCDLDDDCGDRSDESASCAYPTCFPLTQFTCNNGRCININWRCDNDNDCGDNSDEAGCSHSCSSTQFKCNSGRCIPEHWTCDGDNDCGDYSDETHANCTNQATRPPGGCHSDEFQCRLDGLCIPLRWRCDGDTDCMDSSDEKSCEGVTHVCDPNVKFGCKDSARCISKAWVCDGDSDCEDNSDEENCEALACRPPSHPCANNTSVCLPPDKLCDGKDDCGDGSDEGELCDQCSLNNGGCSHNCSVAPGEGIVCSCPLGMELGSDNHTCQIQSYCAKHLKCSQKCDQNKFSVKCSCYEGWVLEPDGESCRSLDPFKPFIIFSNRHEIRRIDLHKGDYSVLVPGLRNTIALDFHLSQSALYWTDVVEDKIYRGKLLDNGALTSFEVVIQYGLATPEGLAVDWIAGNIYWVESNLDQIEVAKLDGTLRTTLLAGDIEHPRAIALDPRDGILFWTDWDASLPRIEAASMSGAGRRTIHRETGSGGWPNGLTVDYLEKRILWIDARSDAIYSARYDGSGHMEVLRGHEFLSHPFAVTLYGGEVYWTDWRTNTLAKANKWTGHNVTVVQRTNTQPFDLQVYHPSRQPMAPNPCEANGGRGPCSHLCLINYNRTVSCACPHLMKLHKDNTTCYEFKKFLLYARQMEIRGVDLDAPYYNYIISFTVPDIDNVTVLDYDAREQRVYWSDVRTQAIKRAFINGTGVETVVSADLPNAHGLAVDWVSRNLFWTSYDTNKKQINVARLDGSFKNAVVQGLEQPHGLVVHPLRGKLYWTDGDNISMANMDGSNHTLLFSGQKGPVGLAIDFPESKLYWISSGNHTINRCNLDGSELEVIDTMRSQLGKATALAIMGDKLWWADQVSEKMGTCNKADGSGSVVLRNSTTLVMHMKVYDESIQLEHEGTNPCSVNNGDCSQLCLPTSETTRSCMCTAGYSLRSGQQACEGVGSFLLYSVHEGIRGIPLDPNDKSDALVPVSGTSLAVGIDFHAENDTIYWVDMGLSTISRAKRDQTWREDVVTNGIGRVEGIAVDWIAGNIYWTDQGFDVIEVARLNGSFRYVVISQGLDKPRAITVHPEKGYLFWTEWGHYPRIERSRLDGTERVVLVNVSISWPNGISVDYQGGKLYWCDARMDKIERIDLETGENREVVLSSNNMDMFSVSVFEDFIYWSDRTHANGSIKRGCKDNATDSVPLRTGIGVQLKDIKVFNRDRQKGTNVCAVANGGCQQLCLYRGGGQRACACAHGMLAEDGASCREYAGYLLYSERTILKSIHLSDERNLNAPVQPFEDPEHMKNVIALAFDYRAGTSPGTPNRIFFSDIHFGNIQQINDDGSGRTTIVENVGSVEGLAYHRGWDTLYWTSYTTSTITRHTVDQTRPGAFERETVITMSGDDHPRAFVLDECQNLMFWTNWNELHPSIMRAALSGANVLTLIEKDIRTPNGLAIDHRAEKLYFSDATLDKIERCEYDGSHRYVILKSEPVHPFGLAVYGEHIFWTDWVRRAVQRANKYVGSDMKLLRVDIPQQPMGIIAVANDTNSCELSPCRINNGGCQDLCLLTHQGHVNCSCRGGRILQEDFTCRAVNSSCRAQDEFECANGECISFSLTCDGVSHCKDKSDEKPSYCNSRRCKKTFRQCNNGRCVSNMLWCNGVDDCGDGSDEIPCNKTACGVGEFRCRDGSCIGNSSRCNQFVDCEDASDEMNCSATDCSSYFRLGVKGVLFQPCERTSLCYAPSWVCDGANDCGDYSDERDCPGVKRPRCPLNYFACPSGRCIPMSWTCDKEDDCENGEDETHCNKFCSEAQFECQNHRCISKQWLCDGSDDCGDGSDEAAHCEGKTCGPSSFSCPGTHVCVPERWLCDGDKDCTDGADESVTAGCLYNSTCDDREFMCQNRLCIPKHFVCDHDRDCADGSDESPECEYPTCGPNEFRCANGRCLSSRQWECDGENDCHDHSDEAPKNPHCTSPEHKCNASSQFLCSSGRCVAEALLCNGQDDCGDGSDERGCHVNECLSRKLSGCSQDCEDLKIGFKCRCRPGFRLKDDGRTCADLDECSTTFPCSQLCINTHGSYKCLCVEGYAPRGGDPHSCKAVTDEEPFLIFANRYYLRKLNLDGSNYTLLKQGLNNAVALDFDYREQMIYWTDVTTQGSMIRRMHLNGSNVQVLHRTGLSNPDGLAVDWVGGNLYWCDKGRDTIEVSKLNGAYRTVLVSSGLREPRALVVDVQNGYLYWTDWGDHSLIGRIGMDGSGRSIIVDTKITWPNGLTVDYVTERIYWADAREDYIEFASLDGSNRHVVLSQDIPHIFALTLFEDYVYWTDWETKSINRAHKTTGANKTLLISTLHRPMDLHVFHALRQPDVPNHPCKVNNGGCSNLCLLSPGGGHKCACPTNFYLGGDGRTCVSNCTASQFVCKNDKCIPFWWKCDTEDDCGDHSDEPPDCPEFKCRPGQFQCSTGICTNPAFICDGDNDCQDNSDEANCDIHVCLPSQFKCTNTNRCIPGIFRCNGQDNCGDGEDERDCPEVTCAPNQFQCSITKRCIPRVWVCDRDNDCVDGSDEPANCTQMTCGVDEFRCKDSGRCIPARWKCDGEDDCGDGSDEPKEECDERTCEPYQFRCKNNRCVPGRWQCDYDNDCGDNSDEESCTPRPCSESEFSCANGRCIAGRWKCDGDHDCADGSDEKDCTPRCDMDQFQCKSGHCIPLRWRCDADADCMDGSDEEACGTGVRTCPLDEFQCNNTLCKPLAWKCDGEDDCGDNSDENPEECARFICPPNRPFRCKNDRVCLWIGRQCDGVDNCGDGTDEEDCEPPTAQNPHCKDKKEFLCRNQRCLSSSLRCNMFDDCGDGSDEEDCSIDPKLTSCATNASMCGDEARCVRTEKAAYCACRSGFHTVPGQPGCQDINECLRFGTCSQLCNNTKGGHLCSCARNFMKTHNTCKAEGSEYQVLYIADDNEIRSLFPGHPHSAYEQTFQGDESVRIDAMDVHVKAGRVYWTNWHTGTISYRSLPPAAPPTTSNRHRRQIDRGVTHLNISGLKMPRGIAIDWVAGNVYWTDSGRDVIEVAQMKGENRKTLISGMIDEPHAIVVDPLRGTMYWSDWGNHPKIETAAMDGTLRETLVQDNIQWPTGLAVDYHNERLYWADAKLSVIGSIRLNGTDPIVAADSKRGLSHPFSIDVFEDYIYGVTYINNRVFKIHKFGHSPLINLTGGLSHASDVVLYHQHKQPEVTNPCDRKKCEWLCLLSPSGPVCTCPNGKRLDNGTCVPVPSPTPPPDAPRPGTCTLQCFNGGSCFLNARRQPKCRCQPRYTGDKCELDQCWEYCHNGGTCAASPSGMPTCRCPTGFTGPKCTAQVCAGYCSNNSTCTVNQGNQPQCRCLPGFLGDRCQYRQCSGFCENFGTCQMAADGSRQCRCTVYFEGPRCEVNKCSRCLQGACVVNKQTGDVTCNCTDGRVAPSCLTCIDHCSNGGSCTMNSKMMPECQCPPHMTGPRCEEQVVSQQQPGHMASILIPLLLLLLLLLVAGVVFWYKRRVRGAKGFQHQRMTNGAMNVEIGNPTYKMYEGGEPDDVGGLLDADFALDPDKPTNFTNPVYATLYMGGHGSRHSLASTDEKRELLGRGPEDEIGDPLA
Procedure for pig cochleae: To further test the generality of IETP2 in large mammals, IETP2 labeled with 5-TAMRA or Cy5.5 was injected into pigs via earlobe veins. Two hours post-injection, the pigs were sacrificed (Supplementary Figs. S5 and S6, representative images of three independent experiments).
The zoomed-in OC images in the white dotted rectangle in f.
Images from the IETP2-5-TAMRA injection group. […] Images from the 5-TAMRA injection group. […] The setting parameters for the microscope (including the excitation intensity and emission gain) remained consistent throughout the experiments. c. […] Images of pig cochleae injected with free Cy5.5 (2 h after injection). (DAPI: blue; LRP1: green; phalloidin: magenta. Scale bars for the overview of porcine cochlear mid turn are 200 µm; others are 10 µm.)

As to `CCN1\C(=C/C=C/C=C/C2=[N+](CCCCCC(=O)O)c3ccc4c(S(=O)(=O)O)cc(S(=O)(=O)O)cc4c3C2(C)C)C(C)(C)c2c1ccc1c(S(=O)(=O)[O-])cc(S(=O)(=O)O)cc21` [Cy5.5], the “distribution in cochleae, free dye” value on LRP1 [1] was “limited distribution inside blood vessels in the SV and SGN regions”.
Regarding TFYGGRPKRNNFLRGIRSRGD [IETP2], the Kd at LRP1 [2] came out at 738 nM. Also, the “signal in the cochleae compared to brain and muscle” value in the data set with mouse cochleae is recorded as “much stronger”. In addition, in the data set with C57BL/6J mice, the “ototoxicity (ABR thresholds)” value is “no obvious ototoxicity”. Also, in the data set with pig cochleae, the “transport into the inner ear of pigs” value is “could be transported into the inner ears”.
